Test [1] deals with human JAK1 (Homo sapiens, UniProt P23458). Nature of the test: In vitro JAK kinase assay (Example A), JAK1. It is filed as biochemical. Conditions: 1 mM ATP. An excerpt: In some embodiments, the JAK1 pathway inhibitor is a compound of Table 2, or a pharmaceutically acceptable salt thereof.
Test [2] has as its target human JAK2 (Homo sapiens (Human), UniProt O60674). Nature of the test: In vitro JAK kinase assay (Example A), JAK2. Conditions: JAK2/JAK1 IC50 ratio, 1 mM ATP. Type of test: biochemical. Here is the method:
The compounds in Table 2 were tested in this assay and shown to have the IC50 values in Table 2.

Sequence of human JAK2 (O60674 828-1132): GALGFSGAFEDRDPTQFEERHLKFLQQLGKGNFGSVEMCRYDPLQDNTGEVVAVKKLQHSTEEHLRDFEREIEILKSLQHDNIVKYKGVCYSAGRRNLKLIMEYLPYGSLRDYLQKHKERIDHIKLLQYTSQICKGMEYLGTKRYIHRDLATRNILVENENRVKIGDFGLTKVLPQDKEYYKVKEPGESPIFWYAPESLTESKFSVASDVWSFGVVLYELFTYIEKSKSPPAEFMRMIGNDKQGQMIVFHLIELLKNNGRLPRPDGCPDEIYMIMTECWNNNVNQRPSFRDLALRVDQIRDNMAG

In the case of `N#CCC(CN1CCN(C(=O)c2ccc(C#N)cc2F)CC1)n1ccc(-c2ncnc3[nH]ccc23)c1` (stereo not drawn) [Compound 9, 4-[(4-{3-cyano-2-[3-(7H-pyrrolo[2,3-d]pyrimidin-4-yl)-1H-pyrrol-1-yl]propyl}piperazin-1-yl)carbonyl]-3-fluorobenzonitrile], the IC50 – broadly, the concentration needed to halve the response being measured – in test [1] was below 10 nM. Besides, in test [2], the JAK2/JAK1 is on record as above 10.

Take `N#CCC1(n2cc(-c3ncnc4[nH]ccc34)cn2)CN(C2CCN(C(=O)c3ccnc(C(F)(F)F)n3)CC2)C1` [Compound 3, [3-[4-(7H-pyrrolo[2,3-d]pyrimidin-4-yl)-1H-pyrazol-1-yl]-1-(1-{[2-(trifluoromethyl)pyrimidin-4-yl]carbonyl}piperidin-4-yl)azetidin-3-yl]acetonitrile]: the IC50 in test [1] was below 10 nM. Besides, the JAK2/JAK1 in test [2] is on record as above 10.

In turn, `C[C@H](NC(=O)c1cc(F)c(N2CC(CC#N)(n3cc(-c4ncnc5[nH]ccc45)cn3)C2)cc1F)C(F)(F)F` [Compound 16, 4-{3-(cyanomethyl)-3-[4-(7H-pyrrolo[2,3-d]pyrimidin-4-yl)-1H-pyrazol-1-yl]azetidin-1-yl}-2,5-difluoro-N-[(1S)-2,2,2-trifluoro-1-methylethyl]benzamide] came in with an IC50 in test [1] below 10 nM. The JAK2/JAK1 in test [2] is given as above 10.

As for `N#CC[C@]1(n2cc(-c3ncnc4[nH]ccc34)cn2)C[C@H](N2CCC(Oc3cc(CN4CC(O)C4)cc(C(F)(F)F)n3)CC2)C1` [Compound 11, {trans-3-(4-{[4-[(3-hydroxyazetidin-1-yl)methyl]-6-(trifluoromethyl)pyridin-2-yl]oxy}piperidin-1-yl)-1-[4-(7H-pyrrolo[2,3-d]pyrimidin-4-yl)-1H-pyrazol-1-yl]cyclobutyl}acetonitrile], in test [1], the IC50 is below 10 nM. The JAK2/JAK1 in test [2] was above 10.

`N#CCC(C1CCN(c2cccc(Cl)n2)C1)n1cc(-c2ncnc3[nH]ccc23)cn1` (single isomer, unassigned) [Compound 6, 3-[1-(6-chloropyridin-2-yl)pyrrolidin-3-yl]-3-[4-(7H-pyrrolo[2,3-d]pyrimidin-4-yl)-1H-pyrazol-1-yl]propanenitrile] had an IC50 in test [1] below 10 nM. The JAK2/JAK1 in test [2] is given as above 10.

The compound `N#CCC1(n2cc(-c3ncnc4[nH]ccc34)cn2)CN([C@H]2CC[C@@H](Oc3cc(CN4CC[C@H](O)C4)cc(C(F)(F)F)n3)CC2)C1` [Compound 22, {1-(cis-4-{[4-{[(3S)-3-hydroxypyrrolidin-1-yl]methyl}-6-(trifluoromethyl)pyridin-2-yl]oxy}cyclohexyl)-3-[4-(7H-pyrrolo[2,3-d]pyrimidin-4-yl)-1H-pyrazol-1-yl]azetidin-3-yl}acetonitrile] registered an IC50 in test [1] below 10 nM. Moreover, the JAK2/JAK1 in test [2] is listed as above 10.

`N#CCC(CN1CCN(C(=O)c2ccc(C#N)cc2F)CC1)n1cc(-c2ncnc3[nH]ccc23)cn1` (stereo not drawn) [Compound 8, 4-[(4-{3-cyano-2-[4-(7H-pyrrolo[2,3-d]pyrimidin-4-yl)-1H-pyrazol-1-yl]propyl}piperazin-1-yl)carbonyl]-3-fluorobenzonitrile] had an IC50 in test [1] below 10 nM. Further, in test [2], the JAK2/JAK1 is given as above 10.

`C[C@@H](O)c1nc2cnc3ccsc3c2n1[C@H]1CC[C@H](CC#N)OC1` [Compound 5, ((2R,5S)-5-{2-[(1R)-1-hydroxyethyl]-1H-imidazo[4,5-d]thieno[3,2-b]pyridin-1-yl}tetrahydro-2H-pyran-2-yl)acetonitrile] yielded an IC50 in test [1] below 100 nM. In addition, the JAK2/JAK1 in test [2] is on record as above 10.

The compound `N#CCC(C1CCN(c2nc3cccnc3o2)C1)n1cc(-c2ncnc3[nH]ccc23)cn1` (stereo not drawn) [Compound 7, 3-(1-[1,3]oxazolo[5,4-b]pyridin-2-ylpyrrolidin-3-yl)-3-[4-(7H-pyrrolo[2,3-d]pyrimidin-4-yl)-1H-pyrazol-1-yl]propanenitrile] showed an IC50 in test [1] below 10 nM. Besides, in test [2], the JAK2/JAK1 is on record as above 10.

Take `C[C@H](O)CNCc1cc(OC2CCN([C@H]3C[C@](CC#N)(n4cc(-c5ncnc6[nH]ccc56)cn4)C3)CC2)nc(C(F)(F)F)c1` [Compound 25, {trans-3-(4-{[4-({[(2S)-2-hydroxypropyl]amino}methyl)-6-(trifluoromethyl)pyridin-2-yl]oxy}piperidin-1-yl)-1-[4-(7H-pyrrolo[2,3-d]pyrimidin-4-yl)-1H-pyrazol-1-yl]cyclobutyl}acetonitrile]: in test [1], the IC50 was below 10 nM. For the same compound, the JAK2/JAK1 in test [2] is above 10.

The compound `CC(C)(O)c1cc(O[C@H]2CC[C@@H](N3CC(CC#N)(n4cc(-c5ncnc6[nH]ccc56)cn4)C3)CC2)nc(C(F)(F)F)c1` [Compound 20, {1-(cis-4-{[4-(1-hydroxy-1-methylethyl)-6-(trifluoromethyl)pyridin-2-yl]oxy}cyclohexyl)-3-[4-(7H-pyrrolo[2,3-d]pyrimidin-4-yl)-1H-pyrazol-1-yl]azetidin-3-yl}acetonitrile] returned an IC50 in test [1] below 10 nM. The JAK2/JAK1 in test [2] is above 10.

`C[C@@H](CO)NCc1cc(OC2CCN([C@H]3C[C@](CC#N)(n4cc(-c5ncnc6[nH]ccc56)cn4)C3)CC2)nc(C(F)(F)F)c1` [Compound 23, {trans-3-(4-{[4-({[(1S)-2-hydroxy-1-methylethyl]amino}methyl)-6-(trifluoromethyl)pyridin-2-yl]oxy}piperidin-1-yl)-1-[4-(7H-pyrrolo[2,3-d]pyrimidin-4-yl)-1H-pyrazol-1-yl]cyclobutyl}acetonitrile] came in with an IC50 in test [1] below 10 nM. Further, the JAK2/JAK1 in test [2] is recorded as above 10.

With `N#CCC1(n2cc(-c3ncnc4[nH]ccc34)cn2)CN([C@H]2CC[C@@H](Oc3cc(CCO)nc(C(F)(F)F)n3)CC2)C1` [Compound 18, {1-(cis-4-{[6-(2-hydroxyethyl)-2-(trifluoromethyl)pyrimidin-4-yl]oxy}cyclohexyl)-3-[4-(7H-pyrrolo[2,3-d]pyrimidin-4-yl)-1H-pyrazol-1-yl]azetidin-3-yl}acetonitrile], in test [1], the IC50 was below 10 nM. For the same compound, the JAK2/JAK1 in test [2] is recorded as above 10.

`C[C@@H](O)CNCc1cc(OC2CCN([C@H]3C[C@](CC#N)(n4cc(-c5ncnc6[nH]ccc56)cn4)C3)CC2)nc(C(F)(F)F)c1` [Compound 24, {trans-3-(4-{[4-({[(2R)-2-hydroxypropyl]amino}methyl)-6-(trifluoromethyl)pyridin-2-yl]oxy}piperidin-1-yl)-1-[4-(7H-pyrrolo[2,3-d]pyrimidin-4-yl)-1H-pyrazol-1-yl]cyclobutyl}acetonitrile] showed an IC50 in test [1] below 10 nM. Further, the JAK2/JAK1 in test [2] is reported as above 10.

With `N#CC[C@]1(n2cc(-c3ncnc4[nH]ccc34)cn2)C[C@H](N2CCC(Oc3cc(CN4CCC[C@@H]4CO)cc(C(F)(F)F)n3)CC2)C1` [Compound 13, {trans-3-(4-{[4-{[(2R)-2-(hydroxymethyl)pyrrolidin-1-yl]methyl}-6-(trifluoromethyl)pyridin-2-yl]oxy}piperidin-1-yl)-1-[4-(7H-pyrrolo[2,3-d]pyrimidin-4-yl)-1H-pyrazol-1-yl]cyclobutyl}acetonitrile], the IC50 in test [1] was below 10 nM. In addition, the JAK2/JAK1 in test [2] is reported as above 10.

As to `N#CC[C@]1(n2cc(-c3ncnc4[nH]ccc34)cn2)C[C@H](N2CCN(C(=O)c3ccnc(C(F)(F)F)n3)CC2)C1` [Compound 10, [trans-1-[4-(7H-pyrrolo[2,3-d]pyrimidin-4-yl)-1H-pyrazol-1-yl]-3-(4-{[2-(trifluoromethyl)pyrimidin-4-yl]carbonyl}piperazin-1-yl)cyclobutyl]acetonitrile], the IC50 in test [1] is below 10 nM. Besides, in test [2], the JAK2/JAK1 is above 10.

Compound `N#CC[C@]1(n2cc(-c3ncnc4[nH]ccc34)cn2)C[C@H](N2CCC(Oc3cc(CCO)cc(C(F)(F)F)n3)CC2)C1` [Compound 26, {trans-3-(4-{[4-(2-hydroxyethyl)-6-(trifluoromethyl)pyridin-2-yl]oxy}piperidin-1-yl)-1-[4-(7H-pyrrolo[2,3-d]pyrimidin-4-yl)-1H-pyrazol-1-yl]cyclobutyl}acetonitrile] registered an IC50 in test [1] below 10 nM. In addition, the JAK2/JAK1 in test [2] was above 10.

In test [1], `N#CCC1(n2cc(-c3ncnc4[nH]ccc34)cn2)CN([C@H]2CC[C@@H](Oc3cc(CN4CC[C@@H](O)C4)cc(C(F)(F)F)n3)CC2)C1` [Compound 21, {1-(cis-4-{[4-{[(3R)-3-hydroxypyrrolidin-1-yl]methyl}-6-(trifluoromethyl)pyridin-2-yl]oxy}cyclohexyl)-3-[4-(7H-pyrrolo[2,3-d]pyrimidin-4-yl)-1H-pyrazol-1-yl]azetidin-3-yl}acetonitrile] returned an IC50 below 10 nM. Further, the JAK2/JAK1 in test [2] is on record as above 10.

With `N#CC[C@]1(n2cc(-c3ncnc4[nH]ccc34)cn2)C[C@H](N2CCC(Oc3cc(CN4CCC[C@H]4CO)cc(C(F)(F)F)n3)CC2)C1` [Compound 12, {trans-3-(4-{[4-{[(2S)-2-(hydroxymethyl)pyrrolidin-1-yl]methyl}-6-(trifluoromethyl)pyridin-2-yl]oxy}piperidin-1-yl)-1-[4-(7H-pyrrolo[2,3-d]pyrimidin-4-yl)-1H-pyrazol-1-yl]cyclobutyl}acetonitrile], the IC50 in test [1] is below 10 nM. In addition, in test [2], the JAK2/JAK1 is above 10.

Turning to `CCNCc1cc(O[C@H]2CC[C@@H](N3CC(CC#N)(n4cc(-c5ncnc6[nH]ccc56)cn4)C3)CC2)nc(C(F)(F)F)c1` [Compound 19, {1-(cis-4-{[4-[(ethylamino)methyl]-6-(trifluoromethyl)pyridin-2-yl]oxy}cyclohexyl)-3-[4-(7H-pyrrolo[2,3-d]pyrimidin-4-yl)-1H-pyrazol-1-yl]azetidin-3-yl}acetonitrile], the IC50 in test [1] is below 10 nM. Moreover, in test [2], the JAK2/JAK1 is above 10.

Regarding `N#CCC1(n2cc(-c3ncnc4[nH]ccc34)cn2)CN(C2CCN(C(=O)Nc3ccc(F)cc3C(F)(F)F)CC2)C1` [Compound 2, 4-{3-(Cyanomethyl)-3-[4-(7H-pyrrolo[2,3-d]pyrimidin-4-yl)-1H-pyrazol-1-yl]azetidin-1-yl}-N-[4-fluoro-2-(trifluoromethyl)phenyl] piperidine-1-carboxamide], the IC50 in test [1] is below 10 nM. In addition, the JAK2/JAK1 in test [2] is above 10.
